# Data taken from patent EP1733758A1, “Methods for administration of a farnesyl dibenzodiazepinone” (Ecopia Biosciences Inc., priority 2005, dated 2006).
# pIC50: −log10 of the molar value. Several values for one entry are separate records, joined by “and”; a condition that tells them apart may be missing. Equal entries are not always repeated.
# What was measured:
# tumor cell lines = experiment: In vitro activity against tumor cell lines (average); assay type: cell-based
# U-87MG cell line = experiment: In vitro activity in the U-87MG cell line; assay type: cell-based; conditions: Homo sapiens
# [1] = Pharmacokinetics of 14-day continuous intravenous infusion in monkeys; assay type: in vivo, Cynomolgus monkeys; conditions: for Css / mean steady-state plasma concentration / T½z: 14-day CIV; for Css: average between 30h and 14 days; for Css / T½z: mean; for mean steady-state plasma concentration: between 30 h and 14 days; for T½z: calculated at the end of treatment; for plasma concentration: CIV 30 mg/kg/day
# Experimental: Cynomolgus monkeys received continuous IV infusion over 14 days of Formula I at 5 mg/kg/day, 15 mg/kg/day, or 30 mg/kg/day. The drug was infused intravenously (24 hours/day) into the femoral vein at a dose rate of 2 ml/kg/hour for 14 consecutive days. Blood samples were removed from each monkey on Days 1, 2, 6, 10, and 15 of the treatment period. Monkeys were bled by venipuncture and samples were collected into tubes containing K2EDTA. On Day 1, samples were collected at 2, 6, and 12 hours after initiation of treatment. Additional samples were collected at 30 hours after the start of infusion (Day 2). On Days 6 and 10, samples were collected at approximately 6 hours after the bag changes. At the end of the 14 days of infusion, on Day 15, samples were collected at 1 hour prior to cessation of dose administration, and at 5 min, 30 min, 1 h, 2 h, 4 h, 8 h, and 24 h following cessation of dose administration.
# [2] = test system: human prostate tumor (PC3) xenografts; experiment: Human PC3 prostate tumor xenograft efficacy; assay type: in vivo, HRLN male nude mice; conditions: for %T/C: day 38, P< 0.0001
# Experimental: The anticancer activity of the compound of Formula I was further tested in a human PC3 prostate model in mice. HRLN male nude mice (8 weeks of age) were implanted with 1 mm^3 PC3 tumor fragments subcutaneously (SC) in the right flank. Animals were randomized (ten per group) when tumors reach an average size of 80 - 120 mg and treatment began according to the table below. For these studies, the compound of Formula I was formulated in 5% ethanol, 5% PEG-400, 15% Polysorbate 80, and 75% of water containing 5% dextrose.
# Tumor measurements were taken twice weekly using callipers and were converted to tumor mass (in milligrams) using the formula: with^2 (mm) x length (mm) x 0.52. Body weights were also recorded twice weekly. Statistical analysis was done using the unpaired two-tailed Student's t test.
# [3] = test system: orthotopic C6 glioma tumor xenograft; experiment: Orthotopic C6 glioma tumor xenograft survival model; assay type: in vivo, CD1 female nude mice; conditions: IP 30 mg/kg days 1, 2 and 3, then 10 mg/kg days 4 and 5 and 9 to 38
# Experimental: The antitumor activity of the compound of formula I was further tested in a orthotopic C6 glioma tumor xenograft model in mice. CD1 female nude mice (6 weeks of age) were grafted intra-cerebrally with 5 x 10^4 (volume of 10 microliters) rat C6 glioma cells (day 0). Treatment was initiated 24 h after tumor cell implantation. The compound of Formula I was administered intraperitoneally (IP) at a concentration of 30 mg/kg (volume of 10 mL/Kg) on days 1, 2 and 3 followed by IP injections of 10 mg/kg on days 4 and 5 and 9 to 38. Vehicle (30% PEG; 30% PG; 40% H2O was injected in a volume of 10 mL/kg using the same route and schedule.
# Body weight of animals was monitored every other day and the effect of the compound of Formula I on growth of intracerebral glioma tumors was evaluated by mouse survival and percentage increase in life span (%ILS, expressed as mean survival time of treated animals minus the mean survival time of the control group). By criteria established by the National Cancer Institute, increases in life span exceeding 25% indicate that the drug has significant antitumor activity (Plowman et al. (1997) Human tumor xenografts models in NCI drug development. In: Theicher BA (ed) Anticancer drug development guide: prescreening, clinical trials and approval. Human press, Totowa, pp 101-125). Statistical analysis of mouse survival was performed by Kaplan-Mayer analysis. […]
# [4] = Pharmacokinetics and tissue distribution after bolus IV, IP, SC and PO administration in mice; assay type: in vivo, female Crl: CD1 mice; conditions: daily bolus administrations of 30 mg/kg (SC) or 20 mg/kg (IP)
# [5] = Toxicity of 14-day continuous intravenous infusion in rats; assay type: in vivo; conditions: 14-day infusion, all treated and control groups, toxicity was due to the vehicle
# Experimental: Sprague-Dawley rats received an intravenous continuous infusion over 14 days of Formula I at 25 mg/kg/day, 50 mg/kg/day, or 75 mg/kg/day at a rate of 2 mL/kg/h for 14 consecutive days (same formulation as in Example 7). Blood was collected from the jugular vein in tubes containing K2 EDTA from 3 rats/sex/group at the following time points: 2, 6, and 12 hours after the start of dosing on Day 1, on Day 2 at 6 hours (approximately 30 hours after the start of dosing), on Days 6 and 10 at 6 hours, and on Day 15, 1 hour prior the end of dosing, and then at 5 min, 15 min, 30 min, 1 h, and 2 h after the end of dosing.
# The toxicity was due to the vehicle and was attributed to smaller size of infusion vessels, and concurrent catheter tract infection.
# [6] = Population pharmacokinetic analysis (NONMEM), rat; assay type: in vivo; conditions: Rat (IV+CIV)
# Experimental: An analysis was performed to derive allometric equations for Formula I pharmacokinetic parameters using Formula I plasma concentration-time data from three species, including mouse, rat, and monkey, and to estimate human pharmacokinetic parameters from those allometric equations.
# Plasma concentrations of Formula I were obtained from mice, rats, and monkeys following intravenous injection or continuous infusion. Formula I pharmacokinetic parameters in mice, rats, and monkeys were estimated using population pharmacokinetic analysis, a function of the software program NONMEM™ (version 5). Typical population pharmacokinetic parameters for Formula I in humans were extrapolated from allometric equations that were derived from pharmacokinetic parameters estimated in the three animal species.
# A two-compartment model with a first-order elimination from the central compartment adequately described Formula I plasma concentration-time profiles following intravenous bolus injection (30 mg/kg) in mice and rats, 7-day continuous infusion in rats (50 to 170 mg/kg/day), and 14-day continuous infusion in monkeys (5 to 30 mg/kg/day).
# [7] = typical population PK parameter
smiles,measurement,setting,value
"CC(C)=CCC/C(C)=C/CC/C(C)=C/CN1C(=O)c2cccc(O)c2Nc2c(O)cc(O)cc21 [Formula I, 10-farnesyl-4,6,8-trihydroxy-dibenzodiazepin-11-one]",pIC50,tumor cell lines,≤ 6.00
same,pIC50,U-87MG cell line,4.96
same,AUC increase between the groups,[1]; 15 mg/kg/day group versus 5 mg/kg/day group,3.4 fold
same,AUC higher than that of the middle dose group,[1]; 30 mg/kg/day group versus 15 mg/kg/day group,4.7 fold
same,Css,[1]; 5 mg/kg/day,358 ng/mL and 358 ^b ng/mL
same,mean steady-state plasma concentration,[1]; 5 mg/kg/day,~0.8 µM
same,T½z,[1]; 5 mg/kg/day,12 h
same,Css,[1]; 15 mg/kg/day,"1,173 ng/mL"
same,mean steady-state plasma concentration,[1]; 15 mg/kg/day,~2.5 µM
same,T½z,[1]; 15 mg/kg/day,8.3 h
same,Css,[1]; 30 mg/kg/day,"6,283 ng/mL"
same,T½z,[1]; 30 mg/kg/day,8.1 h
same,plasma concentration,[1]; Day 1,"2,814 ng/mL"
same,plasma concentration,[1]; Day 6,"4,354 ng/mL"
same,plasma concentration,[1]; Day 10,"6,855 ng/mL"
same,plasma concentration,[1]; day 15,"8,561 ng/mL"
same,%T/C,"[2]; bolus SC 30 mg/kg days 1 to 5, 8 to 12 and 15 to 19",25.5%
same,%T/C,[2]; bolus SC 50 mg/kg every three days x 7,14.6%
same,antitumor activity,"[2]; bolus intravenous treatment (100 mg/kg, 5/2/5/2/5)",did not result in activity
same,increase in life span,[3],29%
same,increase survival,[3],7 days
same,sustained plasma concentrations,[4],1 to 2 µM
same,infusion site findings,[5],necrotization and inflammatory lesions at the site of infusion
same,Q,[6]; WT 0.225 Kg,0.016 L/h
same,V1,[6]; WT 0.225 Kg,0.028 L
same,V2,[6]; WT 0.225 Kg,0.053 L
same,Ke,[6]; [7],8.651 h⁻¹
same,Q,[6]; [7],1.16 mL/min/kg
same,V1,[6]; [7],0.126 L/kg
same,V2,[6]; [7],0.236 L/kg
